Where a SMILES comes first, the peptide text is derived from it. [ ]: non-standard residue; d: D form. Ahx = NCCCCCC(=O)O

In ChEMBL document CHEMBL1126588 (J Med Chem, 1993) one finds Ki data, which are given here for 12 compounds.

Assay [1] concerns the target T1, Neuropeptide Y receptor type 2 (Homo sapiens, UniProt P49146).
T1 sequence (P49146 whole entry): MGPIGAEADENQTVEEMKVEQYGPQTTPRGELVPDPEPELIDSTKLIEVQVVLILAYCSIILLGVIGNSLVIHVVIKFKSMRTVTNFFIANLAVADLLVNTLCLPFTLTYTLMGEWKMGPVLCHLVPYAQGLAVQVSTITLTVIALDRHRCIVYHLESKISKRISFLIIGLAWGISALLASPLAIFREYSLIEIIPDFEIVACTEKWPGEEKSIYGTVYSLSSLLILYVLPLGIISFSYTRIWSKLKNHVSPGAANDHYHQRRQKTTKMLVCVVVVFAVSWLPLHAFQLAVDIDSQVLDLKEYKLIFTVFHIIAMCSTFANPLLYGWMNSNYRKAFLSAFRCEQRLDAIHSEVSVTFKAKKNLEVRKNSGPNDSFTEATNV
Put plainly: Tested against neuropeptide Y2 receptors using SK-N-BE2 human neuroblastoma cells.

The target of assay [2] is T2, Neuropeptide Y receptor type 1 (Homo sapiens, UniProt P25929).
T2 sequence (P25929 whole entry): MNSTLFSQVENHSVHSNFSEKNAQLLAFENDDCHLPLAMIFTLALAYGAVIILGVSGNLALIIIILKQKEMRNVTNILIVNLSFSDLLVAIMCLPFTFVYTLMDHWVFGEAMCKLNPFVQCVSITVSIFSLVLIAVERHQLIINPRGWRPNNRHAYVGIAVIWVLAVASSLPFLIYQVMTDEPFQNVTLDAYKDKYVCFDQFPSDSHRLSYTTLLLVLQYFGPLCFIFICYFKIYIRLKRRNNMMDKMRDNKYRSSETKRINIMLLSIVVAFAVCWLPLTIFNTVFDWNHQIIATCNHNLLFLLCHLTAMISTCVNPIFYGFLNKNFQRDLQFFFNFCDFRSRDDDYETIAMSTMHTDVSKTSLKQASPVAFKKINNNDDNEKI
Description: Tested against neuropeptide Y1 receptors using SK-N-MC human neuroblastoma cells. It counts as cell-based.

By Ki is commonly meant a measure of affinity in units of concentration, obtained from inhibition or displacement. Lower therefore signals higher affinity. For the compound `CC[C@H](C)[C@H](NC(=O)[C@H](CC(C)C)NC(=O)[C@H](CC(N)=O)NC(=O)[C@@H](NC(=O)[C@H]1CNC(=O)CC[C@H](NC(=O)[C@@H](N)Cc2ccc(O)cc2)C(=O)N[C@@H](CO)C(=O)N[C@@H](CCCCN)C(=O)NCCCCCC(=O)N[C@@H](CCCN=C(N)N)C(=O)N[C@@H](Cc2c[nH]cn2)C(=O)N1)[C@@H](C)CC)C(=O)N[C@H](C(=O)N[C@@H](CCCN=C(N)N)C(=O)N[C@@H](CCC(N)=O)C(=O)N[C@@H](CCCN=C(N)N)C(=O)N[C@@H](Cc1ccc(O)cc1)C(N)=O)[C@@H](C)O`, the Ki in assay [1] came to 2.3 nM; in assay [2] (sk-n-mc), 220 nM.

Regarding `CC[C@H](C)[C@H](NC(=O)[C@H](CC(C)C)NC(=O)[C@H](CC(N)=O)NC(=O)[C@@H](NC(=O)[C@H]1CNC(=O)C[C@H](NC(=O)[C@@H](N)Cc2ccc(O)cc2)C(=O)N[C@@H](CO)C(=O)N[C@@H](CCCCN)C(=O)N2CCC[C@H]2C(=O)N[C@H](C)C(=O)N[C@@H](CCCNC(=N)N)C(=O)N[C@@H](Cc2c[nH]cn2)C(=O)N1)[C@@H](C)CC)C(=O)N[C@H](C(=O)N[C@@H](CCCNC(=N)N)C(=O)N[C@@H](CCC(N)=O)C(=O)N[C@@H](CCCNC(=N)N)C(=O)N[C@@H](Cc1ccc(O)cc1)C(=O)O)[C@@H](C)O`, the Ki was 1.5 nM in assay [1] and over 1000 nM in assay [2] (sk-n-mc).

Compound H-YPSKPGRHYINLITRQRY-OH gave a Ki in assay [1] of 3.1 nM.

As for `CC[C@H](C)[C@H](NC(=O)[C@H](Cc1ccc(O)cc1)NC(=O)[C@H](Cc1c[nH]cn1)NC(=O)[C@H](CCCN=C(N)N)NC(=O)[C@H](CC(C)C)NC(=O)[C@H](C)NC(=O)[C@H](CO)NC(=O)[C@H](Cc1ccc(O)cc1)NC(=O)[C@H](Cc1ccc(O)cc1)NC(=O)[C@H](CCCN=C(N)N)NC(=O)[C@H](C)NC(=O)[C@H](CC(C)C)NC(=O)[C@H](CC(=O)O)NC(=O)[C@H](CCC(=O)O)NC(=O)[C@H](C)NC(=O)[C@@H]1CCCN1)C(=O)N[C@@H](CC(N)=O)C(=O)N[C@@H](CC(C)C)C(=O)N[C@H](C(=O)N[C@H](C(=O)N[C@@H](CCCN=C(N)N)C(=O)N[C@@H](CCC(N)=O)C(=O)N[C@@H](CCCN=C(N)N)C(=O)N[C@@H](Cc1ccc(O)cc1)C(=O)O)[C@@H](C)O)[C@@H](C)CC`, in assay [1], the Ki worked out at 0.8 nM.

As to `CC[C@H](C)[C@H](NC(=O)[C@H](Cc1ccc(O)cc1)NC(=O)[C@H](Cc1cnc[nH]1)NC(=O)[C@H](CCCNC(=N)N)NC(=O)CCCCCNC(=O)[C@H](CCCCN)NC(=O)[C@H](CO)NC(=O)[C@@H]1CCCN1C(=O)[C@@H](N)Cc1ccc(O)cc1)C(=O)N[C@@H](CC(N)=O)C(=O)N[C@@H](CC(C)C)C(=O)N[C@H](C(=O)N[C@H](C(=O)N[C@@H](CCCNC(=N)N)C(=O)N[C@@H](CCC(N)=O)C(=O)N[C@@H](CCCNC(=N)N)C(=O)N[C@@H](Cc1ccc(O)cc1)C(=O)O)[C@@H](C)O)[C@@H](C)CC` (H-YPSK[Ahx]RHYINLITRQRY-OH), the Ki was found to be 1 nM in assay [1] and 261 nM in assay [2].

With `CC[C@H](C)[C@H](NC(=O)[C@H](CC(C)C)NC(=O)[C@H](CC(N)=O)NC(=O)[C@@H](NC(=O)[C@H]1CCCCNC(=O)C[C@H](NC(=O)[C@@H](N)Cc2ccc(O)cc2)C(=O)N[C@@H](CO)C(=O)N[C@@H](CCCCN)C(=O)N2CCC[C@H]2C(=O)N[C@H](C)C(=O)N[C@@H](CCCNC(=N)N)C(=O)N[C@@H](Cc2cnc[nH]2)C(=O)N1)[C@@H](C)CC)C(=O)N[C@H](C(=O)N[C@@H](CCCNC(=N)N)C(=O)N[C@@H](CCC(N)=O)C(=O)N[C@@H](CCCNC(=N)N)C(=O)N[C@@H](Cc1ccc(O)cc1)C(=O)O)[C@@H](C)O`, the Ki in assay [1] is 0.5 nM; in assay [2], over 1000 nM.

`CC[C@H](C)[C@H](NC(=O)[C@H](CC(C)C)NC(=O)[C@H](CC(N)=O)NC(=O)[C@@H](NC(=O)[C@H]1CNC(=O)CC[C@@H](NC(=O)[C@@H](N)Cc2ccc(O)cc2)C(=O)N[C@@H](CO)C(=O)N[C@@H](CCCCN)C(=O)N2CCC[C@H]2C(=O)N[C@H](C)C(=O)N[C@@H](CCCN=C(N)N)C(=O)N[C@@H](Cc2c[nH]cn2)C(=O)N1)[C@@H](C)CC)C(=O)N[C@H](C(=O)N[C@@H](CCCN=C(N)N)C(=O)N[C@@H](CCC(N)=O)C(=O)N[C@@H](CCCN=C(N)N)C(=O)N[C@@H](Cc1ccc(O)cc1)C(N)=O)[C@@H](C)O`: the figures for the Ki in assay [1] and in assay [2] (sk-n-mc) were 1.1 nM and 230 nM, respectively.

Consider `CC[C@H](C)[C@H](NC(=O)[C@H](CC(C)C)NC(=O)[C@H](CC(N)=O)NC(=O)[C@@H](NC(=O)[C@H]1CNC(=O)CC[C@H](NC(=O)[C@@H](N)Cc2ccc(O)cc2)C(=O)N[C@@H](CO)C(=O)N[C@@H](CCCCN)C(=O)N2CCC[C@H]2C(=O)NCC(=O)N[C@@H](CCCN=C(N)N)C(=O)N[C@@H](Cc2c[nH]cn2)C(=O)N1)[C@@H](C)CC)C(=O)N[C@H](C(=O)N[C@@H](CCCN=C(N)N)C(=O)N[C@@H](CCC(N)=O)C(=O)N[C@@H](CCCN=C(N)N)C(=O)N[C@@H](Cc1ccc(O)cc1)C(N)=O)[C@@H](C)O`, for which the inhibition constant Ki came to 0.3 nM in assay [1] and 130 nM in assay [2] (sk-n-mc).

As to `CC[C@H](C)[C@@H]1NC(=O)[C@H](CC(C)C)NC(=O)[C@H](CC(N)=O)NC(=O)[C@@H](NC(=O)[C@H](Cc2ccc(O)cc2)NC(=O)[C@H](Cc2cnc[nH]2)NC(=O)[C@H](CCCNC(=N)N)NC(=O)[C@@H](C)NC(=O)[C@@H]2CCCN2C(=O)[C@H](CCCCN)NC(=O)[C@H](CO)NC(=O)[C@@H]2CCCN2C(=O)[C@@H](N)Cc2ccc(O)cc2)CCCCNC(=O)CC[C@@H](C(=O)N[C@@H](CCCNC(=N)N)C(=O)N[C@@H](CCC(N)=O)C(=O)N[C@@H](CCCNC(=N)N)C(=O)N[C@@H](Cc2ccc(O)cc2)C(=O)O)NC1=O`, the inhibition constant (Ki) in assay [1] was 0.5 nM; in assay [2], over 1000 nM.

On to `CC[C@H](C)[C@H](NC(=O)[C@H](CC(C)C)NC(=O)[C@H](CC(N)=O)NC(=O)[C@@H](NC(=O)[C@H]1CNC(=O)CC[C@H](NC(=O)[C@@H](N)Cc2ccc(O)cc2)C(=O)N[C@@H](CO)C(=O)N[C@@H](CCCCN)C(=O)N2CCC[C@H]2C(=O)N[C@H](C)C(=O)N[C@@H](CCCN=C(N)N)C(=O)N[C@@H](Cc2c[nH]cn2)C(=O)N1)[C@@H](C)CC)C(=O)N[C@H](C(=O)N[C@@H](CCCN=C(N)N)C(=O)N[C@@H](CCC(N)=O)C(=O)N[C@@H](CCCN=C(N)N)C(=O)N[C@@H](Cc1ccc(O)cc1)C(N)=O)[C@@H](C)O`, for which the inhibition constant Ki in assay [1] was 0.3 nM; in assay [2] (sk-n-mc), over 1000 nM.

`CC[C@H](C)[C@@H]1NC(=O)[C@H](CC(C)C)NC(=O)[C@H](CC(N)=O)NC(=O)[C@@H](NC(=O)[C@H]2CNC(=O)CC[C@H](NC(=O)[C@@H](N)Cc3ccc(O)cc3)C(=O)N[C@@H](CO)C(=O)N[C@@H](CCCCN)C(=O)N3CCC[C@H]3C(=O)N[C@H](C)C(=O)N[C@@H](CCCN=C(N)N)C(=O)N[C@@H](Cc3c[nH]cn3)C(=O)N2)CCCCNC(=O)CC[C@@H](C(=O)N[C@@H](CCCN=C(N)N)C(=O)N[C@@H](CCC(N)=O)C(=O)N[C@@H](CCCN=C(N)N)C(=O)N[C@@H](Cc2ccc(O)cc2)C(N)=O)NC1=O`: the values for the Ki in assay [1] and in assay [2] (sk-n-mc) were 0.3 nM and over 1000 nM, respectively.

`CC[C@H](C)[C@H](NC(=O)[C@H](Cc1ccc(O)cc1)NC(=O)[C@H](Cc1cnc[nH]1)NC(=O)[C@H](CCCNC(=N)N)NC(=O)[C@@H](C)NC(=O)[C@@H]1CCCN1C(=O)[C@H](CCCCN)NC(=O)[C@H](CO)NC(=O)[C@@H]1CCCN1C(=O)[C@@H](N)Cc1ccc(O)cc1)C(=O)N[C@@H](CC(N)=O)C(=O)N[C@@H](CC(C)C)C(=O)N[C@H](C(=O)N[C@H](C(=O)N[C@@H](CCCNC(=N)N)C(=O)N[C@@H](CCC(N)=O)C(=O)N[C@@H](CCCNC(=N)N)C(=O)N[C@@H](Cc1ccc(O)cc1)C(=O)O)[C@@H](C)O)[C@@H](C)CC`: the figures for the Ki in assay [1] and in assay [2] were 0.9 nM and 290 nM, respectively.
